# Laboratory results as given in patent US7879872B2, “Compositions comprising multiple bioactive agents, and methods of using the same” (Affinium Pharmaceuticals, Inc., priority 2003, dated 2011).
# “And” between values parts separate entries of the source, which are not always exact repeats. Identical values can stand only once.
# Experiments:
# S. aureus 29213 = assay: checkerboard combination study (FIC index); type: cell-based, Staphylococcus aureus; set-up: key: FIC index = average of FICA+FICB (MIC combo/MIC alone)
# Method: (§1) The combination experiments were performed and the results were interpreted using the checkerboard method as described in Eliopoulous, G. M., and R. C. Moellering, 1996, Antimicrobial combinations, p. 330-396, In V. Lorian (ed.), Antibiotics in laboratory medicine, 4th ed., The Williams & Wilkins Co., Baltimore, Md., in 96-well microtiter plates. Compound A was serially diluted along the x-axis of the test plate to a final volume of 50 μl, and compound B was serially diluted in a separate transfer plate. Dilutions in both plates were made in CAMHB (cation-adjusted Mueller Hinton broth) for Staphylococci and in CAMHB+5% sheep blood for Streptococci. Aliquots (50 μl) of Compound B were transferred to the test plate along the y-axis thereby achieving a checkerboard matrix of antimicrobial combinations (100 μl total volume) as in FIG. 4. The first column and last row (shaded in FIG. 4) contained only compound B or compound A, respectively. Plates were then inoculated with 10 μl of the test microorganism and MICs were determined according to NCCLS guidelines (see National Committee for Clinical Laboratory Standards, 2000, Methods for Dilution Antimicrobial Susceptibility Tests for Bacteria That Grow Aerobically—Fifth Edition, Approved Standard M7-A5, NCCLS, Wayne, Pa., USA.)
# (§2) Data analysis was performed as follows and according to Eliopoulous, G. M., and R. C. Moellering, 1996, Antimicrobial combinations, p. 330-396, In V. Lorian (ed.), Antibiotics in laboratory medicine, 4th ed., The Williams & Wilkins Co., Baltimore, Md. First individual FIC values for each combination in a plate were calculated: FIC(Fractional Inhibitory Concentration)=FICA+FICB • FICA=MICA+B/MICA i.e. the MIC of combination of compound A+compound B divided by the MIC of compound A alone. • FICB=MICB+A/MICB i.e. the MIC of combination of compound B+compound A divided by the MIC of compound B alone.
# (§3) FIC values were calculated only for combinations that enabled determination of a true MIC (e.g. not > or <=values). FIC indexes were then calculated as the average of individual FIC values for each combination plate.
# S. aureus 43300 = assay: checkerboard combination study (FIC index); type: cell-based, Staphylococcus aureus; set-up: key: FIC index = average of FICA+FICB (MIC combo/MIC alone); conditions: S. aureus 43300 (MRSA)
# Method: as §1, §2, §3
# E. faecalis EF_A6221420 = assay: checkerboard combination, clinical bacterial isolates (FIC); type: cell-based; conditions: E. faecalis EF_A6221420 (VRE)
# Method: as §1, §2, §3
# S. pyogenes SPY_20015 = assay: as above; type: cell-based; conditions: compound G with Gatifloxacin
# Method: as §1, §2, §3
# E. faecalis A6221420 = assay: Combination Time-kill kinetics; type: cell-based; conditions: alone or with Meropenem 4 × MIC (16 ug/ml)
# Method: (§4) As used herein, “synergy” refers to the in vitro effect of administration of a combination of an antibacterial agent such as a Fab I inhibiter, and antiinfective agent such that (1) the fractional inhibitory concentration (FIC) is less than or equal to 0.5 in an FIC assay described herein; or (2) there is at least a 100-fold (2 log10) increase in killing at 24 hours for the combination as compared with the bioactive agent alone in a time kill curve assay as described herein. An FIC of ≦0.5 is evidence of synergy. An additive response has an FIC value of >0.5 and less than or equal to 1, while an indifferent response has an FIC value of >1 and ≦2. An additive effect may still indicate that the combination of bioactive agent and cationic peptide are therapeutically useful.
# S. pneumoniae 22257 = assay: Combination Time-kill kinetics; type: cell-based; conditions: alone or with Azithromycin 4 × MIC (0.12 ug/ml) or Cefuroxime 4 × MIC (8 ug/ml)
# Method: as §4
# S. pneumoniae 22425 = assay: Combination Time-kill kinetics; type: cell-based; conditions: alone or with Gatifloxacin 4 × MIC (2 ug/ml)
# Method: as §4
# [1] = test system: major pathogenic species tested; assay: Checkerboard combination studies of compound G and commercial antibiotics (FIG. 7); type: cell-based; conditions: all major pathogenic species tested
# Method: Checkerboard experiments were performed and analyzed according to standard procedures as outlined below.
# [2] = test system: S. pneumoniae 22425, a penicillin and macrolide resistant clinical isolate; assay: Combination time-kill studies; type: cell-based; conditions: compound alone at both 0.03 μg/ml and 1 μg/ml; S. pneumoniae 22425; FIG. 8
# Method: Combination time-kill studies were performed as follows. Bacterial inocula were prepared as for MIC determination according to CLSI guidelines. Log phase cells (˜10^6 CFU/ml) were inoculated into 24 well plates and incubated with the indicated concentrations of compound G and commercial antibiotics for 24 hours at 35° C. At indicated time points samples were removed for determination of viable CFU counts. Results are plotted as log CFU/ml vs. time.
smiles,measurement,setting,value
"Cc1c(CN(C)C(=O)/C=C/c2cnc3c(c2)CCC(=O)N3)oc2ccccc12 [Compound G, (E)-N-methyl-N-(3-methylbenzofuran-2-ylmethyl)-3-(7-oxo-5,6,7,8-tetrahydro-1,8-naphthyridin-3-yl)acrylamide]",FIC Index,S. aureus 29213; with Cefuroxime,0.8
same,FIC Index,S. aureus 29213; with Cloxacillin,2
same,FIC Index,S. aureus 29213; with Erythromycin,2
same,FIC Index,S. aureus 29213; with Gentamcin,0.3
same,FIC Index,S. aureus 29213; with Levofloxacin,1
same,FIC Index,S. aureus 29213; with Linezolid,0.5
same,FIC Index,S. aureus 29213; with Nafcillin,0.8
same,FIC Index,S. aureus 29213; with Rifampicin,0.8
same,FIC Index,S. aureus 29213; with Tetracycline,2
same,FIC Index,S. aureus 29213; with Vancomycin,1
same,FIC Index,S. aureus 43300; with Cefuroxime,0.5
same,FIC Index,S. aureus 43300; with Cloxacillin,0.75
same,FIC Index,S. aureus 43300; with Gentamcin,0.4
same,FIC Index,S. aureus 43300; with Levofloxacin,2
same,FIC Index,S. aureus 43300; with Linezolid,0.5
same,FIC Index,S. aureus 43300; with Nafcillin,0.7
same,FIC Index,S. aureus 43300; with Rifampicin,0.75
same,FIC Index,S. aureus 43300; with Tetracycline,1
same,FIC Index,S. aureus 43300; with Vancomycin,0.75
same,FIC,E. faecalis EF_A6221420; compound G with Ceftriaxone,<2
same,FIC,E. faecalis EF_A6221420; compound G with Gatifloxacin,<2
same,FIC,E. faecalis EF_A6221420; compound G with Levofloxacin,<2
same,FIC,E. faecalis EF_A6221420; compound G with Meropenem,<2
same,FIC,S. pyogenes SPY_20015,<2
same,logCFU/ml at Time (hr): 0,E. faecalis A6221420; Compound G 0.03 ug/ml,5.10 logCFU/ml
same,logCFU/ml at Time (hr): 2,E. faecalis A6221420; Compound G 0.03 ug/ml,6.03 logCFU/ml
same,logCFU/ml at Time (hr): 4,E. faecalis A6221420; Compound G 0.03 ug/ml,6.42 logCFU/ml
same,logCFU/ml at Time (hr): 8,E. faecalis A6221420; Compound G 0.03 ug/ml,9.88 logCFU/ml
same,logCFU/ml at Time (hr): 24,E. faecalis A6221420; Compound G 0.03 ug/ml,9.91 logCFU/ml
same,ΔlogCFU/ml (24-0 hr),E. faecalis A6221420; Compound G 0.03 ug/ml,4.81 logCFU/ml
same,logCFU/ml at Time (hr): 0,E. faecalis A6221420; Compound G 1 ug/ml,5.12 logCFU/ml
same,logCFU/ml at Time (hr): 2,E. faecalis A6221420; Compound G 1 ug/ml,5.93 logCFU/ml
same,logCFU/ml at Time (hr): 4,E. faecalis A6221420; Compound G 1 ug/ml,6.53 logCFU/ml
same,logCFU/ml at Time (hr): 8,E. faecalis A6221420; Compound G 1 ug/ml,9.76 logCFU/ml
same,logCFU/ml at Time (hr): 24,E. faecalis A6221420; Compound G 1 ug/ml,9.91 logCFU/ml
same,ΔlogCFU/ml (24-0 hr),E. faecalis A6221420; Compound G 1 ug/ml,4.79 logCFU/ml
same,logCFU/ml at Time (hr): 0,S. pneumoniae 22257; Compound G 0.03 ug/ml,6.41 logCFU/ml and 6.20 logCFU/ml
same,logCFU/ml at Time (hr): 3,S. pneumoniae 22257; Compound G 0.03 ug/ml,8.31 logCFU/ml and 8.15 logCFU/ml
same,logCFU/ml at Time (hr): 6,S. pneumoniae 22257; Compound G 0.03 ug/ml,9.23 logCFU/ml and 9.35 logCFU/ml
same,logCFU/ml at Time (hr): 8,S. pneumoniae 22257; Compound G 0.03 ug/ml,9.32 logCFU/ml
same,logCFU/ml at Time (hr): 24,S. pneumoniae 22257; Compound G 0.03 ug/ml,9.68 logCFU/ml and 9.65 logCFU/ml
same,ΔlogCFU/ml (24-0 hr),S. pneumoniae 22257; Compound G 0.03 ug/ml,3.26 logCFU/ml and 3.45 logCFU/ml
same,logCFU/ml at Time (hr): 0,S. pneumoniae 22257; Compound G 1 ug/ml,6.43 logCFU/ml and 6.30 logCFU/ml
same,logCFU/ml at Time (hr): 3,S. pneumoniae 22257; Compound G 1 ug/ml,8.30 logCFU/ml and 8.17 logCFU/ml
same,logCFU/ml at Time (hr): 6,S. pneumoniae 22257; Compound G 1 ug/ml,9.33 logCFU/ml and 9.20 logCFU/ml
same,logCFU/ml at Time (hr): 8,S. pneumoniae 22257; Compound G 1 ug/ml,9.47 logCFU/ml and 9.41 logCFU/ml
same,logCFU/ml at Time (hr): 24,S. pneumoniae 22257; Compound G 1 ug/ml,9.68 logCFU/ml and 9.71 logCFU/ml
same,ΔlogCFU/ml (24-0 hr),S. pneumoniae 22257; Compound G 1 ug/ml,3.25 logCFU/ml and 3.40 logCFU/ml
same,logCFU/ml at Time (hr): 0,S. pneumoniae 22425; Compound G 0.03 ug/ml,5.20 logCFU/ml
same,logCFU/ml at Time (hr): 2,S. pneumoniae 22425; Compound G 0.03 ug/ml,5.63 logCFU/ml
same,logCFU/ml at Time (hr): 6,S. pneumoniae 22425; Compound G 0.03 ug/ml,7.25 logCFU/ml
same,logCFU/ml at Time (hr): 24,S. pneumoniae 22425; Compound G 0.03 ug/ml,7.61 logCFU/ml
same,ΔlogCFU/ml (24-0 hr),S. pneumoniae 22425; Compound G 0.03 ug/ml,2.41 logCFU/ml
same,logCFU/ml at Time (hr): 0,S. pneumoniae 22425; Compound G 1 ug/ml,5.12 logCFU/ml
same,logCFU/ml at Time (hr): 2,S. pneumoniae 22425; Compound G 1 ug/ml,5.61 logCFU/ml
same,logCFU/ml at Time (hr): 6,S. pneumoniae 22425; Compound G 1 ug/ml,7.18 logCFU/ml
same,logCFU/ml at Time (hr): 24,S. pneumoniae 22425; Compound G 1 ug/ml,7.58 logCFU/ml
same,ΔlogCFU/ml (24-0 hr),S. pneumoniae 22425; Compound G 1 ug/ml,2.45 logCFU/ml
same,antagonism in compound G combinations,[1],did not show antagonism
same,activity against S. pneumoniae (time-kill),[2],no activity
